How the values were obtained:
[1] = tested on: sensory neurons myelinated by Schwann cells; assay: Neuroprotection on myelinated sensory neuron/Schwann cell coculture, cisplatin poisoning, curative protocol (co-incubation 24 h); format: cell-based, rat
Text: The in vitro model used is a culture of sensory neurons myelinated by Schwann cells (Callizot et al., 2011, Exp Cell Res 317:2374-2383). This model, miniaturized in 96 wells, makes it possible to analyze the effects of molecules on the development of sensory neurons and on the myelination of axons by Schwann cells.
(§1) Protocol of the coculture of sensory neurons and Schwann cells: Female rats with 15 days gestation were killed by cervical dislocation (Wistar rats; January Lab) and the fetuses were removed from the uterus. Embryonic DRGs were collected and placed in an icy medium of Leibovitz 15 (L15; PanBiotech, Ref P04-27055, batch: 4590720) containing 2% Penicillin-Streptomycin (PS; PanBiotech, ref: P06-07100, batch: 7390220) and 1% bovine serum albumin (BSA; PanBiotech, Ref: P06-1391100, batch: H200403). DRGs were dissociated by trypsinization for 20 minutes (min) at 37° C. (Trypsin EDTA 1×; PanBiotech, Ref: P10-023100, batch: 3590720). The reaction was stopped by the addition of Dulbecco's modified Eagle medium (DMEM; PanBiotech, Ref: P04-03600, batch: 4080720) containing DNase I grade II (0.1 mg/ml; PanBiotech, Ref: P60-37780100, batch: H181015) and 10% fetal calf serum (FCS; Invitrogen, Ref: 10270106, batch: 2232584). The cells were then mechanically dissociated by 3 passes through a 10 ml pipette. The cells were then centrifuged at 180×g for 10 min at +4° C. on a layer of BSA (3.5%) in medium L15. The supernatant was discarded and the cell pellets were resuspended in a defined culture medium consisting of Neurobasal (Invitrogen, Ref: 21103049, batch: 2176355) supplemented with 2% B27; (Invitrogen, ref: 17504-044, batch: 2193553), L-glutamine (2 mM; PanBiotech, Ref: P04-80100, batch: 3301019), 2% PS and 50 ng/mL NGF (Sigma, Ref: N1408, L batch batch: SLCG1641). The viable cells were then counted in a Neubauer cytometer using the trypan blue exclusion test. The cells were seeded at a density of 12000 cells/wells in 96-well plates (pre-coated with poly-D-lysine; Greiner, Ref: 655940, batch: E20093UL) and have been grown at 37° C. in humidified air (95%)/C02 (5%) atmosphere. Half of the middle was changed every 2 days with fresh middle. The cells are held for 7 to 12 days to allow the proliferation of Schwann cells and sensory neurons. On day 8, the medium is supplemented with 50 μg/mL of ascorbic acid (AA; Sigma, Ref 092902, batch: 05316HJ-438) to initiate the differentiation of Schwann basal cells into myelinating Schwann cells.
Under these conditions, after 5 days of culture with AA, the myelin sheaths are detected with an anti-MAG antibody ([…]), an early marker of myelin. • A. Study of the neuroprotective properties of pluri-ionic compositions on myelinated sensory neurons after Cisplatin poisoning: curative protocol
Cis-diammineplatin (II) dichloride (cisplatin; Sigma, ref: P4394, batch: MKCL0026) was reconstituted in medium at 10 mg/ml (stock solution). The control environment was prepared under the same conditions. After 12 days of culture with AA, the primary sensory neurons were treated for 24 hours with pluri-ionic compositions in the presence or absence of cisplatin poisoning. The cisplatin preparation was used on neurons at a final concentration of 12 μM diluted in control medium for 24 hours of incubation. The pluri-ionic compositions tested are obtained by dissolution in water of lithium chloride, magnesium chloride hexahydrate and potassium chloride, and contain: • 1. KY21400: Li 10.37 mmol/kg, Mg 2.27 mmol/kg, K 16.88 mmol/kg • 2. KY21310: Li 5.76 mmol/kg, Mg 1.26 mmol/kg, K 9.38 mmol/kg • 3. KY21200: Li 1.73 mmol/kg, Mg 0.38 mmol/kg, K 2.81 mmol/kg […]

[2] = tested on: sensory neurons myelinated by Schwann cells; assay: Toxicity of isolated or combined ions on sensory neurons without cisplatin; format: cell-based, rat; settings: Table 1; isolated or combined ions (chlorides), no cisplatin
Text: as §1
The following conditions were tested: • Control medium • Control+cisplatin (12 μM, 24 h) • Pluri-ionic compositions KY21400, KY21310 or KY21200+cisplatin (12 μM, 24 h) • Pluri-ionic compositions KY21400, KY21310 or KY21200 • Control+individual ions at various concentrations • Control+cisplatin (12 μM, 24 h)+individual ions at various concentrations
For the evaluation of the toxicity of individual ions, the cells are fixed after 3 days of treatment. The cells are incubated with an anti-beta-tubulin mouse monoclonal antibody (1/2000, Sigma; Ref T8660-.2 mL; batch: 034M4790V) in a blocking buffer at 4° C. for 12 hours.
The cell nuclei were labeled with a fluorescent marker (Hoechst's solution, Sigma; ref: H-33258, batch: 046M4048V) in the same buffer.
For each condition, 20 images per well were taken using InCell Analyzer™ 2200 (GE Healthcare) with a magnification of 20×. The images of each well of culture were taken under the same conditions. The analysis was performed using Developer software (GE Healthcare). A total of 6 data per experimental condition was provided.
In parallel, the effect of isolated or combined ions two by two on the survival of sensory neurons and the length of neurites was also evaluated under the same conditions. The solutions are all prepared from the chlorides of the ions tested.

[3] = tested on: rat myelinated primary sensory neurons; assay: Neuroprotection on rat myelinated primary sensory neurons after cisplatin injury, protection protocol (2 h pretreatment); format: cell-based
Text: as §1
Cis-diammineplatin (II) dichloride (cisplatin; Sigma, ref: P4394, batch: MKCL0026) was reconstituted in medium at 10 mg/ml (stock solution). The control environment was prepared under the same conditions. […]
The following conditions were assessed: • Control medium • Control+cisplatin (12 μM, 24 h) • Pluri-ionic compositions KY21400, KY21310 or KY21200+cisplatin (12 μM, 24 h) • Pluri-ionic compositions KY21400, KY21310 or KY21200.
This study was carried out with 6 wells per condition and duplicated for validation of the results. The data taken and analyzed are the added results of the 2 studies. […]

[4] = Table 2, isolated ions with cisplatin 12 μM, 24 h
[5] = concentrations ranging from 0.15 mg/kg to 1.2 mg/kg, same conditions
[6] = Table 1, with cisplatin 12 μM, 24 h, composition incubated at the same time
[7] = cisplatin 12 μM, 24 h, composition co-incubated

| SMILES | Average percentage of neurite length relative to control [1, 4] | Mean percentage of sensory neurons number relative to control [1, 4] | Mean percentage of neurite length relative to control [2] [%] | Mean percentage of sensory neurons number relative to control [2] [%] | other results |
| --- | --- | --- | --- | --- | --- |
| [K+] [K 366 mg/kg = 9.38 mmol/kg] | 91% | 58% | 115 | 117 |  |
| [Mn+2] [Manganese] |  |  |  |  | effect on neurite length [1, 5]: without demonstrating any significant effect; effect on neuron survival [1, 5]: without demonstrating any significant effect; effect on the myelin sheath length [3, 5]: without demonstrating any significant effect |
| [Cl-].[Cl-].[Mg+2] [Mg 30.8 mg/kg = 1.27 mmol/kg] |  |  | 98 | 108 |  |
| N.N.[Cl][Pt][Cl] [cisplatin, Cis-diammineplatin (II) dichloride] | 63-75% | 51-57% |  |  | Mean percentage of neurite length relative to control [1, 6]: 35%; Mean percentage of sensory neurons number relative to control [1, 6]: 39%; Mean percentage of sensory neurons number relative to control ([1]; Table 4, with cisplatin (12 mm, 24 h)): 53.1%; loss of myelin [1, 7]: 78%; loss of neurites [1, 7]: 65%; cell death of sensory neurons (dead cells) ([1]; cisplatin 12 μM, 24 h, composition during the 24 h of cisplatin lesion): 61%; loss of neurites ([3]; cisplatin 12 μM, 24 h): 51%; cell death ([3]; cisplatin 12 μM, 24 h, composition two hours before and during cisplatin injury): 64%; loss of myelin ([3]; cisplatin 12 μM, 24 h, two-hour pre-treatment with composition): 69% |
| [Cl-].[Li+] [Li 40 mg/kg = 5.8 mmol/kg] | 80% | 66% | 77 | 97 |  |
